Source: patent US10125134B2 (Mirati Therapeutics, Inc., priority 2016, dated 2018)
Like-named read-outs stand apart in the source and are kept apart here.

Experiments:
[1] = test system: NCI-H358 cells (express KRas G12C), Phospho-ERK; assay: Cellular inhibition of KRas G12C: Phospho-ERK in NCI-H358 cells; assay type: cell-based; details: pERK(Thr202/Tyr204) normalized with GAPDH, NCI-H358 cells, 3 hours, read-out: IC50
Summary of the method: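 IC50 derived by 4-parameter fit of GAPDH-normalized pERK(Thr202/Tyr204) signal, as percent of DMSO control. Signal came from in-cell immunodetection with infrared secondaries after 3 h compound exposure of KRas G12C NCI-H358 cells at 0.5% DMSO.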

[2] = target: KRas G12C (Homo sapiens, UniProt P01116, C118S/C51S/C80L/G12C); assay: KRas G12C Modification Assay (LCMS detection of covalent adduct); assay type: binding; details: normalized percent of control; tested at 5 μM concentration for 3 hours
Summary of the method: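 Covalent modification was read by reverse-phase LC/MS of intact protein after compound exposure, each reaction stopped at its time point with 25 mM acetic acid. Unmodified-protein signal, taken as percent of total, was normalised to untreated protein and reported as POC.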

C=CC(=O)N1CCN(c2nc(OC[C@H]3CCCN3C)nc3c2CCN(c2ccccc2C(F)(F)F)C3)CC1CC#N (stereo partly drawn) [Example 283, 2-(1-acryloyl-4-(2-(((R)-1-methylpyrrolidin-2-yl)methoxy)-7-(2-(trifluoromethyl)phenyl)-5,6,7,8-tetrahydropyrido[3,4-d]pyrimidin-4-yl)piperazin-2-yl)acetonitrile]
IC50 ([1]; Homo sapiens, NCI-H358, 3 h): 0.0001 to 1 µM
POC [2]: C (“C”>50% POC)

C=C(C)C(=O)N1CCN(c2nc(OC[C@@H]3CCCN3C)nc3c2CCN(c2cccc4ccccc24)C3)CC1CC#N (stereo partly drawn) [Example 261, 2-[1-(2-methylprop-2-enoyl)-4-[2-[[(2S)-1-methylpyrrolidin-2-yl]methoxy]-7-(1-naphthyl)-6,8-dihydro-5H-pyrido[3,4-d]pyrimidin-4-yl]piperazin-2-yl]acetonitrile]
IC50 ([1]; Homo sapiens, NCI-H358, 3 h): > 1 µM
POC [2]: A (“A”≤25% POC)

C=CC(=O)N1CCN(c2nc(OC[C@@H]3CCCN3CC(=O)N(C)C)nc3c2CCN(c2cccc4ccccc24)C3)C[C@@H]1CC#N [Example 401, 2-((S)-2-(((4-((S)-4-acryloyl-3-(cyanomethyl)piperazin-1-yl)-7-(naphthalen-1-yl)-5,6,7,8-tetrahydropyrido[3,4-d]pyrimidin-2-yl)oxy)methyl)pyrrolidin-1-yl)-N,N-dimethylacetamide]
IC50 ([1]; Homo sapiens, NCI-H358, 3 h): 0.0001 to 1 µM
POC [2]: C (“C”>50% POC)

C=CC(=O)N1CCN(c2nc(OC[C@@H]3CCCN3C)nc3c2CCN(c2cccnc2C(F)(F)F)C3)CC1CC#N (stereo partly drawn) [Example 226, 2-(1-acryloyl-4-(2-(((S)-1-methylpyrrolidin-2-yl)methoxy)-7-(2-(trifluoromethyl)pyridin-3-yl)-5,6,7,8-tetrahydropyrido[3,4-d]pyrimidin-4-yl)piperazin-2-yl)acetonitrile]
IC50 ([1]; Homo sapiens, NCI-H358, 3 h): 0.0001 to 1 µM
POC [2]: C (“C”>50% POC)

C=CC(=O)N1CCN(c2nc(OCCN(C)C)nc3c2CCN(c2ccccc2C(F)(F)F)C3)CC1CC#N (stereo not shown) [Example 296, 2-[4-[2-[2-(dimethylamino)ethoxy]-7-[2-(trifluoromethyl)phenyl]-6,8-dihydro-5H-pyrido[3,4-d]pyrimidin-4-yl]-1-prop-2-enoyl-piperazin-2-yl]acetonitrile]
IC50 [1]: 0.0001 to 1 µM
POC [2]: C (“C”>50% POC)

C=CC(=O)N1CCN(c2nc(OC[C@@H]3CCCN3CC)nc3c2CCN(c2cccc4ccccc24)C3)C[C@@H]1CC#N [Example 399, 2-((S)-1-acryloyl-4-(2-(((S)-1-ethylpyrrolidin-2-yl)methoxy)-7-(naphthalen-1-yl)-5,6,7,8-tetrahydropyrido[3,4-d]pyrimidin-4-yl)piperazin-2-yl)acetonitrile]
IC50 ([1]; Homo sapiens, NCI-H358, 3 h): 0.0001 to 1 µM
POC [2]: C (“C”>50% POC)

C=CC(=O)N1CCN(c2nc(OC[C@@H]3CCCN3C)nc3c2CCN(c2c(O)cccc2F)C3)[C@@H](C)C1 [Example 321, 1-[(3S)-4-[7-(2-fluoro-6-hydroxy-phenyl)-2-[[(2S)-1-methylpyrrolidin-2-yl]methoxy]-6,8-dihydro-5H-pyrido[3,4-d]pyrimidin-4-yl]-3-methyl-piperazin-1-yl]prop-2-en-1-one]
IC50 ([1]; Homo sapiens, NCI-H358, 3 h): > 1 µM
POC [2]: B (“B”>25% POC−≤50% POC)

C=CC(=O)N1CCN(c2nc(OC[C@@H]3CCCN3C)nc3c2CCN(c2cc(O)cc4ccccc24)C3)[C@@H](C)C1 [Example 202, 1-((S)-4-(7-(3-hydroxynaphthalen-1-yl)-2-(((S)-1-methylpyrrolidin-2-yl)methoxy)-5,6,7,8-tetrahydropyrido[3,4-d]pyrimidin-4-yl)-3-methylpiperazin-1-yl)prop-2-en-1-one]
IC50 ([1]; Homo sapiens, NCI-H358, 3 h): 0.0001 to 1 µM
POC [2]: C (“C”>50% POC)

C=CC(=O)N1CCN(c2nc(N3CCCC3)nc3c2CCN(c2cc(O)cc4ccccc24)C3)CC1 [Example 119, 1-(4-(7-(3-hydroxynaphthalen-1-yl)-2-(pyrrolidin-1-yl)-5,6,7,8-tetrahydropyrido[3,4-d]pyrimidin-4-yl)piperazin-1-yl)prop-2-en-1-one]
IC50 ([1]; Homo sapiens, NCI-H358, 3 h): > 1 µM
POC [2]: B (“B”>25% POC−≤50% POC)

C=CC(=O)N1CCN(c2nc(O[C@H](C)CN3CC[C@H](O)C3)nc3c2CCN(c2cc(O)cc4ccccc24)C3)CC1 [Example 65, 1-(4-(7-(3-hydroxynaphthalen-1-yl)-2-(((R)-1-((S)-3-hydroxypyrrolidin-1-yl)propan-2-yl)oxy)-5,6,7,8-tetrahydropyrido[3,4-d]pyrimidin-4-yl)piperazin-1-yl)prop-2-en-1-one]
IC50 ([1]; Homo sapiens, NCI-H358, 3 h): > 1 µM
POC [2]: C (“C”>50% POC)

C=CC(=O)N1CCN(c2nc(O[C@H](C)CN(C)C)nc3c2CCN(c2c(C)ccc(F)c2O)C3)CC1 [Example 87, (R)-1-(4-(2-((1-(dimethylamino)propan-2-yl)oxy)-7-(3-fluoro-2-hydroxy-6-methylphenyl)-5,6,7,8-tetrahydropyrido[3,4-d]pyrimidin-4-yl)piperazin-1-yl)prop-2-en-1-one]
IC50 ([1]; Homo sapiens): > 1 µM
POC [2]: A (“A”≤25% POC)

C=CC(=O)N1CCN(c2nc(OC3CCN(C)C3)nc3c2CCN(c2cc(O)cc4ccccc24)C3)CC1 (stereo not shown) [Example 23, 1-(4-(7-(3-hydroxynaphthalen-1-yl)-2-((1-methylpyrrolidin-3-yl)oxy)-5,6,7,8-tetrahydropyrido[3,4-d]pyrimidin-4-yl)piperazin-1-yl)prop-2-en-1-one]
IC50 ([1]; Homo sapiens, NCI-H358, 3 h): > 1 µM
POC [2]: C (“C”>50% POC)

C=CC(=O)N1CCN(c2nc(O[C@H](C)CN(C)C)nc3c2CCN(c2cc(O)cc4ccccc24)C3)CC1CC#N (stereo partly drawn) [Example 150, 2-(1-acryloyl-4-(2-(((R)-1-(dimethylamino)propan-2-yl)oxy)-7-(3-hydroxynaphthalen-1-yl)-5,6,7,8-tetrahydropyrido[3,4-d]pyrimidin-4-yl)piperazin-2-yl)acetonitrile]
IC50 ([1]; Homo sapiens, NCI-H358, 3 h): 0.0001 to 1 µM
POC [2]: C (“C”>50% POC)

C=CC(=O)N1CCN(c2nc(OC[C@@H]3CCCN3C)nc3c2CCN(c2cncc(Cl)c2C(F)(F)F)C3)C[C@@H]1CC#N [Example 385, 2-((S)-1-acryloyl-4-(7-(5-chloro-4-(trifluoromethyl)pyridin-3-yl)-2-(((S)-1-methylpyrrolidin-2-yl)methoxy)-5,6,7,8-tetrahydropyrido[3,4-d]pyrimidin-4-yl)piperazin-2-yl)acetonitrile]
IC50 ([1]; Homo sapiens, NCI-H358, 3 h): 0.0001 to 1 µM
POC [2]: C (“C”>50% POC)

C=CC(=O)N1CCN(c2nc(OCCCN3C[C@H]4C[C@@H]3CO4)nc3c2CCN(c2ccccc2C(F)(F)F)C3)CC1CC#N (stereo partly drawn) [Example 280, 2-(4-(2-(3-((1R,4R)-2-oxa-5-azabicyclo[2.2.1]heptan-5-yl)propoxy)-7-(2-(trifluoromethyl)phenyl)-5,6,7,8-tetrahydropyrido[3,4-d]pyrimidin-4-yl)-1-acryloylpiperazin-2-yl)acetonitrile]
IC50 ([1]; Homo sapiens): 0.0001 to 1 µM
POC [2]: C (“C”>50% POC)

C=CS(=O)(=O)N1CCN(c2nc(OC[C@@H]3CCCN3C)nc3c2CCN(c2cccc(C)c2C)C3)CC1 [Example 343, (S)-7-(2,3-dimethylphenyl)-2-((1-methylpyrrolidin-2-yl)methoxy)-4-(4-(vinylsulfonyl)piperazin-1-yl)-5,6,7,8-tetrahydropyrido[3,4-d]pyrimidine]
IC50 ([1]; Homo sapiens, NCI-H358, 3 h): > 1 µM
POC [2]: C (“C”>50% POC)

C=CC(=O)N1CCN(c2nc(OCCCN3CCOCC3)nc3c2CCN(c2cc(O)ccc2F)C3)CC1 [Example 42, 1-(4-(7-(2-fluoro-5-hydroxyphenyl)-2-(3-morpholinopropoxy)-5,6,7,8-tetrahydropyrido[3,4-d]pyrimidin-4-yl)piperazin-1-yl)prop-2-en-1-one]
IC50 ([1]; Homo sapiens): > 1 µM
POC [2]: A (“A”≤25% POC)
